ChEMBL document CHEMBL5661967, “Antitumor activity of HKI-272, an orally active, irreversible inhibitor of the HER-2 tyrosine kinase” (Cancer Res, 2004)
pIC50: −log10 of the molar value. Activity calls are given as the source filed them. The calls are words filed in the database; no cut-off is given here.

Tests used:
NIH3T3 [1] = test: Antitumor activity against mouse 3T3 cells transfected with HER-2 oncogene implanted in athymic nude mouse assessed as tumor growth inhibition at 40 mg/kg, po administered daily for 10 days via gavage and measured on day 14 relative to control; assay type: functional; conditions: NIH3T3, 336 h, time 14 day, read-out: TGI
[2] = Toxicity in human BT-474 cells xenografted athymic nude mouse at 10 to 40 mg/kg, po administered daily via gavage for 20 days; assay type: organism-based; conditions: in vivo, 480 h, dose 10-40 mg/kg, time 20 day
[3] = In vivo inhibition of HER2 autophosphorylation in human BT-474 cells xenografted athymic nude mouse at 40 mg/kg, po administered as single dose via gavage measured after 1 hr by immunoblot analysis relative to control; assay type: functional
BT-474 [4] = test: Cell cycle arrest in human BT-474 cells assessed as accumulation of cells at S phase at 0.4 nM measured after 12 to 16 hrs by BrdUrd uptake assay (reference value: 26%); assay type: functional; conditions: time 12-16 hrs
BT-474 [5] = test: Cell cycle arrest in human BT-474 cells assessed as accumulation of cells at S phase at 1 nM measured after 12 to 16 hrs by BrdUrd uptake assay (reference value: 26%); assay type: functional; conditions: time 12-16 hrs
BT-474 [6] = test: Cell cycle arrest in human BT-474 cells assessed as accumulation of cells at G0-G1 phase at 0.4 nM measured after 12 to 16 hrs by propidium iodide staining based flow cytometry (reference value: 61%); assay type: functional; conditions: time 12-16 hrs
BT-474 [7] = test: Cell cycle arrest in human BT-474 cells assessed as accumulation of cells at Sub-G1 phase at 0.4 nM measured after 12 to 16 hrs by propidium iodide staining based flow cytometry (reference value: 8%); assay type: functional; conditions: time 12-16 hrs
[8] = molecular target: Retinoblastoma-associated protein (Homo sapiens) (UniProt P06400); test: Inhibition of Rb phosphorylation in human BT-474 cells at 1 to 10 nM incubated for 12 to 16 hrs by Western blot analysis; assay type: cell-based; conditions: dose 1-10 nM, time 12-16 hrs
BT-474 [9] = test: Cell cycle arrest in human BT-474 cells assessed as accumulation of cells at S phase at 2 nM measured after 12 to 16 hrs by BrdUrd uptake assay (reference value: 26%); assay type: functional; conditions: time 12-16 hrs
SW-620 = test: Antiproliferative activity against human SW620 cells measured after 2 days by sulforhodamine B assay; assay type: functional, cell-based; conditions: SW-620, 48 h
[10] = In vivo inhibition of HER2 autophosphorylation in human BT-474 cells xenografted athymic nude mouse at 40 mg/kg, po administered as single dose via gavage measured after 24 hrs by immunoblot analysis relative to control; assay type: functional
[11] = molecular target: Vascular endothelial growth factor receptor 2 (Homo sapiens, UniProt P35968); test: Inhibition of recombinant KDR (unknown origin) using poly[Glu:Tyr] (4:1) as substrate
Chain of Vascular endothelial growth factor receptor 2 (P35968 whole entry): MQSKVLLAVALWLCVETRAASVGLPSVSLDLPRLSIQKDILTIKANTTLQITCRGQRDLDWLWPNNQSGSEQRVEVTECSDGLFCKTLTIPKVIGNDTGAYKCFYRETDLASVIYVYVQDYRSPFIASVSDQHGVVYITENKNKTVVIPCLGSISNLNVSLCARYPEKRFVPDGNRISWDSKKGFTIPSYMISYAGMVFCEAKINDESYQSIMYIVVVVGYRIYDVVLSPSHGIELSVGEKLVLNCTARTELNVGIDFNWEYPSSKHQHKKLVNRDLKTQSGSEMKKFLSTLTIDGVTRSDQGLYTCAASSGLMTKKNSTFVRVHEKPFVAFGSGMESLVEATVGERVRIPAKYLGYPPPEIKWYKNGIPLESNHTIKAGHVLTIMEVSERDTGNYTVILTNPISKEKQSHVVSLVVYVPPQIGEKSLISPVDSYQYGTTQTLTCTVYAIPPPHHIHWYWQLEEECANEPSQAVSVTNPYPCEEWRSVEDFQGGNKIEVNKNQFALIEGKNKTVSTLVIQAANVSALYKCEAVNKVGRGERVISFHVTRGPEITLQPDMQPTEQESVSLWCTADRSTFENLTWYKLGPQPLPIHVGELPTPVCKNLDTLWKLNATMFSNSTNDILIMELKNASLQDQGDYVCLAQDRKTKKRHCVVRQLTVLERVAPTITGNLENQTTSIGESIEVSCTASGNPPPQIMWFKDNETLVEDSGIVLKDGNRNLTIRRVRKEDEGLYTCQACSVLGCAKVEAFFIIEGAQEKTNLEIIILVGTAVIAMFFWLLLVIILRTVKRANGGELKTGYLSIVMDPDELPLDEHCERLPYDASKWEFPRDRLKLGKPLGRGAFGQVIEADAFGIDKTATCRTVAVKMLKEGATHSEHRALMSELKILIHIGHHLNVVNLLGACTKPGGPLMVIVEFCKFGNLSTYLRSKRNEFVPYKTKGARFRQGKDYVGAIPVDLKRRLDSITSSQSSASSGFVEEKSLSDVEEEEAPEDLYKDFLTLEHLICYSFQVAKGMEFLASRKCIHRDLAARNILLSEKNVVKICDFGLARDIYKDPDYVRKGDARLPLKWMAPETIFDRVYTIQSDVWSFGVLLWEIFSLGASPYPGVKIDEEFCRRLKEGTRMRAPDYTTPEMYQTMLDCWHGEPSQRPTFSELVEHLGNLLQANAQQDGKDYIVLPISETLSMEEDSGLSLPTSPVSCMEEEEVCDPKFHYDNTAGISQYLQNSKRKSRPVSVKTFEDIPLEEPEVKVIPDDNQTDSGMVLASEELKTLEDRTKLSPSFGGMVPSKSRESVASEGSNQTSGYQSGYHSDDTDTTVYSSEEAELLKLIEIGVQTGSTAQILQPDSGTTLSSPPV

[12] = Toxicity in human SK-OV-3 cells xenografted athymic nude mouse assessed as body weight loss at 10 to 60 mg/kg, po administered daily via gavage for 20 days; assay type: organism-based; conditions: in vivo, 480 h, dose 10-60 mg/kg, time 20 day
[13] = molecular target: RAC-alpha serine/threonine-protein kinase (Homo sapiens, UniProt P31749); test: Inhibition of recombinant AKT (unknown origin) using peptide as substrate
Chain of RAC-alpha serine/threonine-protein kinase (P31749 whole entry): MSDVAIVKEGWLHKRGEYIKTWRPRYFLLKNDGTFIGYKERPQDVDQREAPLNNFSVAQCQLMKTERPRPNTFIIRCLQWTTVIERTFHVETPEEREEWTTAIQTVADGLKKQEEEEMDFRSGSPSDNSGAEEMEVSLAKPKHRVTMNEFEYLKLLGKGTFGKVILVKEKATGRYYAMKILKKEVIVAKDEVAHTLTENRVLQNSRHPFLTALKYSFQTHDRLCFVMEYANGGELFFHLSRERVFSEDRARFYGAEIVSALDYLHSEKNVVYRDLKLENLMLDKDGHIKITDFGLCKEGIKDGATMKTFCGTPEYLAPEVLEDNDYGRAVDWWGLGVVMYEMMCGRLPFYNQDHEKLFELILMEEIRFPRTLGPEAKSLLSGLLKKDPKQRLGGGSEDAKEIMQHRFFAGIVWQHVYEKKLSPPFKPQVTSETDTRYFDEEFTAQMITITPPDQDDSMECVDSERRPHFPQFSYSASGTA

[14] = Terminal half life in nude mouse at 20 mg/kg, po administered as single dose; assay type: ADME, organism-based; conditions: in vivo, read-out: beta t1/2 (converted)
BT-474 [15] = test: Cell cycle arrest in human BT-474 cells assessed as down regulation of cyclin D1 expression incubated for 12 to 16 hrs by Western blot analysis; assay type: functional, cell-based
[16] = molecular target: Epidermal growth factor receptor (Homo sapiens, UniProt P00533); test: Inhibition of EGF-induced EGFR phosphorylation in human A-431 cells at 1 uM incubated for 3 hrs by Western blot analysis relative to control; assay type: cell-based
Chain of Epidermal growth factor receptor (P00533 whole entry): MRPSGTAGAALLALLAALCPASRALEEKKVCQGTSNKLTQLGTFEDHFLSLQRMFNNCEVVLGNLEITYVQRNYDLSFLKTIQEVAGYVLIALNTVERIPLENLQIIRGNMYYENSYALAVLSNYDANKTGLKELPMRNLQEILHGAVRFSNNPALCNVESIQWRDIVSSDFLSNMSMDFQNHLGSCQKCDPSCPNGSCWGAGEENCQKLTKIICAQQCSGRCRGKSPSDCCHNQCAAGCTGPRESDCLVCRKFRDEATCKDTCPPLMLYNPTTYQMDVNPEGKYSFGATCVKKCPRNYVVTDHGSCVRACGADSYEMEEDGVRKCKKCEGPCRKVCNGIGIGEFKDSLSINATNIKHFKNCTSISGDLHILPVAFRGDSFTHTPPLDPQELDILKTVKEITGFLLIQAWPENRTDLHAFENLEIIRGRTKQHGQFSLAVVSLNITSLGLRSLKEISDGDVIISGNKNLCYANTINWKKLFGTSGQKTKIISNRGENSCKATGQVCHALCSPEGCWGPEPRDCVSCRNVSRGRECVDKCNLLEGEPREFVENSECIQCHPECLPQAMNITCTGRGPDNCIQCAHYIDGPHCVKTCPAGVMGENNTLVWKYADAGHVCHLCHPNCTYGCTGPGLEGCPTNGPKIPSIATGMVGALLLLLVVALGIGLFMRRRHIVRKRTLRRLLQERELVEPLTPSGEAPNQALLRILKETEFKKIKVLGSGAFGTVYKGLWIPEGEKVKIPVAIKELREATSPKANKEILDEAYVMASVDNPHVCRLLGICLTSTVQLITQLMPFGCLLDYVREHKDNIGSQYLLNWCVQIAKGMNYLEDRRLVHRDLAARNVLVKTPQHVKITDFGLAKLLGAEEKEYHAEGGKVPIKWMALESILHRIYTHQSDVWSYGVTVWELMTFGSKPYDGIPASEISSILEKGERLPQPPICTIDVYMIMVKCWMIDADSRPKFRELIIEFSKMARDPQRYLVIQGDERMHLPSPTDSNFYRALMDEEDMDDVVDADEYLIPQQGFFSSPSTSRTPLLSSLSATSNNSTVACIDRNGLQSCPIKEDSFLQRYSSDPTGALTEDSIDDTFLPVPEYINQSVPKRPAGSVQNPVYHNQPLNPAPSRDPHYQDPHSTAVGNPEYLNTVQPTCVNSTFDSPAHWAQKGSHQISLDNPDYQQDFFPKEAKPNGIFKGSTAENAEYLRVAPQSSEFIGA

[17] = molecular target: Hepatocyte growth factor receptor (Homo sapiens, UniProt P08581); test: Inhibition of recombinant c-Met autophosphorylation (unknown origin)
Chain of Hepatocyte growth factor receptor (P08581 whole entry): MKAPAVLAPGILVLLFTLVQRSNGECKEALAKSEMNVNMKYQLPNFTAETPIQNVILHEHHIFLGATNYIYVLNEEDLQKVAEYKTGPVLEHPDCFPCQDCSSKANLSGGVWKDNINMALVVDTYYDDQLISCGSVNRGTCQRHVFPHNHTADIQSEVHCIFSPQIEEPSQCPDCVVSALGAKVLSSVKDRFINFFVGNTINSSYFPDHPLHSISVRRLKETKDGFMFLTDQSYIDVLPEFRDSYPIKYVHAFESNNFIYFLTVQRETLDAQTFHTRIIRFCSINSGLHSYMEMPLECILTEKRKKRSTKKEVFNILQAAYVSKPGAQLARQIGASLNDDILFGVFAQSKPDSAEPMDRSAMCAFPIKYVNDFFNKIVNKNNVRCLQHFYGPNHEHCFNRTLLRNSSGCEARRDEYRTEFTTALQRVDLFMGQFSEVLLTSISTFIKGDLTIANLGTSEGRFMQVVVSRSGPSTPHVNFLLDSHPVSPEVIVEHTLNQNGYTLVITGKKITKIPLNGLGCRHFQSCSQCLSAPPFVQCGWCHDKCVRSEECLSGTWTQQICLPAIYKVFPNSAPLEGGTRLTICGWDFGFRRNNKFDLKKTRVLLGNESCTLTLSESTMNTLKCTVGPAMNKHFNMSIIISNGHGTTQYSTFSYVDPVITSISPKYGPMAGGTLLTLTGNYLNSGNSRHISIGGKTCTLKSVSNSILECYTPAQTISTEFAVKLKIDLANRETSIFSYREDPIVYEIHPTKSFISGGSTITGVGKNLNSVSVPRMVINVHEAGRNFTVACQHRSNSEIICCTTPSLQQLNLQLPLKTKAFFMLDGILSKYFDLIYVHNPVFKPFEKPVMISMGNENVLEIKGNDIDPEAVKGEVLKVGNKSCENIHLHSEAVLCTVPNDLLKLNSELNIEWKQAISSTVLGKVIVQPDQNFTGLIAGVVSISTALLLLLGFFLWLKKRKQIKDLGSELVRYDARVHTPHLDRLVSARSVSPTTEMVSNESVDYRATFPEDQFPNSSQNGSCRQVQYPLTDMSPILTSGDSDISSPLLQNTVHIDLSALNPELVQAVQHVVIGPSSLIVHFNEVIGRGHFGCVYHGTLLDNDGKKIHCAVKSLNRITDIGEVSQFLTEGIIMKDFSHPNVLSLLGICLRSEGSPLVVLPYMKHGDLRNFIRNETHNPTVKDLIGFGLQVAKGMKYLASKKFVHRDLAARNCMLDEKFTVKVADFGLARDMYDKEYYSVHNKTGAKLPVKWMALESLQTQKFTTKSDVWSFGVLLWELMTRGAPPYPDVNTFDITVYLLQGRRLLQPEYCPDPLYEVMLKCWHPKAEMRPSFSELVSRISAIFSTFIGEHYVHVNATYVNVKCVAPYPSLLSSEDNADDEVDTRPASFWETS

[18] = molecular target: Cyclin-dependent kinase 2/cyclin E1 (Homo sapiens, UniProt P24941); test: Inhibition of recombinant CDK2/cyclin E (unknown origin) using protein as substrate; assay type: protein-complex assay
[19] = Toxicity in mouse 3T3 cells transfected with HER-2 oncogene implanted athymic nude mouse assessed as body weight loss at 20 to 80 mg/kg, po administered daily for 10 days; assay type: organism-based, NIH3T3; conditions: in vivo, 240 h, dose 20-80 mg/kg, time 10 day
[20] = molecular target: Receptor tyrosine-protein kinase erbB-2 (Homo sapiens, UniProt P04626); test: Inhibition of [14C]HKI-272 binding to recombinant N-terminal His6-tagged HER2 cytoplasmic domain (676 to 1255 residues)(unknown origin) expressed in baculovirus infected Sf9 insect cells at 5 uM measured after 15 mins by fluorography
[21] = Toxicity in mouse 3T3 cells transfected with HER-2 oncogene implanted athymic nude mouse at 20 to 80 mg/kg, po administered daily for 10 days; assay type: organism-based, NIH3T3; conditions: in vivo, 240 h, dose 20-80 mg/kg, time 10 day
BT-474 [22] = test: Cell cycle arrest in human BT-474 cells assessed as accumulation of cells at G2/M phase at 2 nM measured after 12 to 16 hrs by propidium iodide staining based flow cytometry (reference value: 11%); assay type: functional; conditions: time 12-16 hrs
BT-474 [23] = test: Cell cycle arrest in human BT-474 cells assessed as down regulation of Rb expression at 1 to 10 nM incubated for 12 to 16 hrs by Western blot analysis; assay type: functional, cell-based; conditions: dose 1-10 nM, time 12-16 hrs
NIH3T3 [24] = test: Antiproliferative activity against mouse 3T3 cells transfected with HER-2 oncogene measured after 2 days by sulforhodamine B assay; assay type: functional, cell-based; conditions: NIH3T3, 48 h
BT-474 [25] = test: Cell cycle arrest in human BT-474 cells assessed as accumulation of cells at G2/M phase at 0.2 nM measured after 12 to 16 hrs by propidium iodide staining based flow cytometry (reference value: 11%); assay type: functional; conditions: time 12-16 hrs
NIH3T3 [26] = test: Antitumor activity against mouse 3T3 cells transfected with HER-2 oncogene implanted in athymic nude mouse assessed as tumor growth inhibition at 80 mg/kg, po administered daily for 10 days via gavage and measured on day 21 relative to control; assay type: functional; conditions: NIH3T3, 504 h, time 21 day, read-out: TGI
BT-474 [27] = test: Cell cycle arrest in human BT-474 cells assessed as accumulation of cells at S phase at 0.2 nM measured after 12 to 16 hrs by BrdUrd uptake assay (reference value: 26%); assay type: functional; conditions: time 12-16 hrs
BT-474 [28] = test: Antitumor activity against human BT-474 cells xenografted in athymic nude mouse assessed as tumor growth inhibition at 5 mg/kg, po administered daily for 20 days via gavage and measured on day 21 relative to control; assay type: functional; conditions: BT-474, 504 h, time 21 day, read-out: TGI
BT-474 [29] = test: Cell cycle arrest in human BT-474 cells assessed as accumulation of cells at Sub-G1 phase at 1 nM measured after 12 to 16 hrs by propidium iodide staining based flow cytometry (reference value: 8%); assay type: functional; conditions: time 12-16 hrs
A-431 = test: Antitumor activity against human A-431 cells xenografted in athymic nude mouse assessed as tumor growth inhibition at 5 mg/kg, po administered daily for 10 days via gavage and measured on day 15 relative to control; assay type: functional; conditions: A-431, 360 h, time 15 day, read-out: TGI
BT-474 [30] = test: Cell cycle arrest in human BT-474 cells assessed as accumulation of cells at S phase at 2 nM measured after 12 to 16 hrs by propidium iodide staining based flow cytometry (reference value: 21%); assay type: functional; conditions: time 12-16 hrs

inhibition [8]: Active
pIC50 (SW-620): 6.16
pIC50 [11]: 6.10
pIC50 [13]: < 4.70
half-life [14]: ~4 h
pIC50 (BT-474 [15]): 8.05
inhibition [16]: > 99%
pIC50 [17]: < 4.46
pIC50 [18]: < 4.74
inhibition [20]: Active
Structure (SMILES): COc1cc2ncc(C#N)c(Nc3ccc(OCc4ccccn4)c(Cl)c3)c2cc1NC(=O)/C=C/CN(C)C
inhibition in vivo at 40 mg/kg (NIH3T3 [1]): 98%
Activity [2]: Non-Toxic
inhibition in vivo at 40 mg/kg [3]: 84%
Activity (BT-474 [4]): 14%
Activity (BT-474 [5]): 12%
Activity (BT-474 [6]): 65%
Activity (BT-474 [7]): 11%
Activity (BT-474 [9]): 10%
inhibition in vivo at 40 mg/kg [10]: 43%
Activity [12]: Non-Toxic
Activity [19]: Non-Toxic
Activity [21]: Non-Toxic
Activity (BT-474 [22]): 11%
Activity (BT-474 [23]): Active
pIC50 (NIH3T3 [24]): 8.52
Activity (BT-474 [25]): 13%
inhibition in vivo at 80 mg/kg (NIH3T3 [26]): 98%
Activity (BT-474 [27]): 18%
inhibition in vivo at 5 mg/kg (BT-474 [28]): 70%
Activity (BT-474 [29]): 7%
inhibition in vivo at 5 mg/kg (A-431): 32%
Activity (BT-474 [30]): 12%
